{"source": "patent US20100113517A1", "about": "“METHOD FOR THE TREATMENT OF FABRY DISEASE USING PHARMACOLOGICAL CHAPERONES” (AMICUS THERAPEUTICS, INC., priority 2007, published 2010)", "key": {"[1]": {"experiment": "Phase I ascending single oral dose study, pharmacokinetics", "format": "in vivo, healthy volunteers (human)", "details": "for half-life / Tmax / CL renal / AUC(0-inf) / AUC(0-t) / Cmax: male, human; for half-life / Tmax / AUC(0-inf) / AUC(0-t) / Cmax: plasma; for CL renal / Ae, cumulative percentage of DGJ excreted over the 12-hour postdose period: urine; for AUC(0-inf) / AUC(0-t) / Cmax: geometric mean", "experimental": "This example describes a randomized, double blind, placebo controlled Phase I study of ascending single oral dose of DGJ to evaluate the safety, tolerability and pharmacokinetics of DGJ in healthy volunteers.\nStudy Design and Duration. […] Dose escalation to the next dose level (i.e., next group) proceeded following review of safety and tolerability of the previous group(s). Subjects were housed in the treatment facility from 14 hours prior to dosing until 24 hours after dosing. Meals were controlled by schedule and subjects remained abulatory for 4 hours post drug administration.\nStudy Population. Subjects were healthy, non-institutionalized, non-smoking male volunteers between 19 and 50 years of age (inclusive) consisting of members of the community at large.\nPharmacokinetic Sampling. Blood samples (10 mL each) were collected in blood collection tubes containing EDTA before dosing and at the following times thereafter: 0.25, 0.5, 0.75, 1, 1.5, 2, 3, 4, 5, 6, 8, 10, 12, 16 and 24 hours. Blood samples were cooled in an ice bath and centrifuged under refrigeration as soon as possible. Plasma samples were divided into two aliquots an dstored at […] pending assay. At the end of the study, all samples were transferred to MDS Pharma Services Analytical Laboratories (Lincoln) for analysis.\nPharmacokinetic parameters were summarised by treatment group using descriptive statistics (arithmetic means, standard deviations, coefficients of variation, sample size, minimum, maximum and median). In addition, geometric means were calculated for AUC0-t, AUCinf and Cmax."}, "α-Gal A [2]": {"test_system": "α-Gal A", "experiment": "Phase II study in Fabry patients, α-Gal A activity in white blood cells", "format": "in vivo, Fabry patients (human)", "experimental": "Study Design. A two-arm design was planned. […] In the second arm, escalating doses of 25, 100, and then 250 mg b.i.d. over 6 weeks, followed by 50 mg/day for the remainder of the study.\nα-Gal A activity. In addition, α-Gal A activity will be assessed in fractionated tissue obtained from biopsies and in blood leukocytes and plasma (from blood collected at baseline and every month).\nα-Gal A Activity. […] Eight patients in the study received an acending dose of 25, 100, and then 250 mg b.i.d. over 6 weeks, followed by 50 mg/day for the remainder of the study (represented on FIG. 2 by closed circles). For purposes of calculating the percentage of normal in the table, the level of α-GAL that is normal was derived by using the average of the levels of α-GAL in white blood cells of 15 healthy volunteers from the multiple-dose Phase I study."}, "GL-3": {"test_system": "GL-3", "experiment": "Phase II study in Fabry patients, GL-3 levels (kidney, skin, urine, plasma)", "format": "in vivo, Fabry patients (human)", "experimental": "Study Design. A two-arm design was planned. In one arm, eligible patients were given 150 mg of DGJ-HCl every other day for 12 weeks, with an extension up to 48 weeks. In the second arm, escalating doses of 25, 100, and then 250 mg b.i.d. over 6 weeks, followed by 50 mg/day for the remainder of the study.\nGL-3 deposits. Skin, kidney and heart biopsies will be performed at baseline, 3 months and six months and evaluated for GL-3 deposits in skin fibroblasts, cardiac myocytes, and various renal cells.\nGL-3 levels. […] Urine and plasma GL-3 levels at baseline and after treatment as assessed by liquid chromatography mass spectrometry were available for 10 patients. […] For the few patients that had elevated levels of GL-3 in urine or plasma at baseline, the results were difficult to interpret due to high intra-patient variability.\nSkin GL-3 levels at baseline and after treatment as assessed by light and electron microscopy are available for 10 patients."}, "α-Gal A [3]": {"test_system": "α-Gal A", "experiment": "Plasma concentration at which enzyme activity enhancement is seen (clinical and preclinical studies)", "format": "in vivo", "details": "clinical studies and preclinical studies in mice"}, "[4]": {"test_system": "mutant α-Gal A (R301Q or Q279E)", "details": "lymphoblasts from Fabry patients with R301Q or Q279E mutations; cited from earlier work"}, "mutant (R301Q) α-Gal A": {"target": "T1, mutant (R301Q) α-Gal A (Homo sapiens, UniProt P06280, R301Q)", "T1 construct": "host or cells: major organs of transgenic mice overexpressing R301Q α-Gal A", "T1 sequence (P06280 32-429 R301Q)": "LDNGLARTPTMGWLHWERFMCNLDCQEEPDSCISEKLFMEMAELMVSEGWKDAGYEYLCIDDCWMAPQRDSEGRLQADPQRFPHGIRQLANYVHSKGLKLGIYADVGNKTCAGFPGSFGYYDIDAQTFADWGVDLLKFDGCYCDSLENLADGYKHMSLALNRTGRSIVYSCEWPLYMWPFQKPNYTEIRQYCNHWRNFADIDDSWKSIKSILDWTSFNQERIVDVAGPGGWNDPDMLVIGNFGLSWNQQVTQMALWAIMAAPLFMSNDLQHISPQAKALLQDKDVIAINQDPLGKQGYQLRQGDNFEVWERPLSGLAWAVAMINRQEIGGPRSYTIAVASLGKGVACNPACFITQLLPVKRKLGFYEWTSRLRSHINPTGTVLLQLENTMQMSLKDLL", "details": "oral administration; cited from earlier work"}}, "note": "Like-named read-outs stand apart in the source and are kept apart here.", "data": [{"compound": "OCC1NCC(O)C(O)C1O", "note": "(centres unmarked) [DGJ, 1-deoxygalactonojirimycin]", "values": [{"measurement": "time of peak concentrations, on average", "setting": "[1]; all dose levels (25-675 mg single dose)", "value": "approximately 3 hours"}, {"measurement": "increase of AUC and Cmax with dose", "setting": "[1]; doses increased from 25 mg to 225 mg", "value": "dose-proportional manner"}, {"measurement": "half-life", "setting": "[1]; oral, 25-675 mg single dose, read-out: mean half-life across all dose levels", "value": "3 to 4.6", "unit": "h"}, {"measurement": "Tmax", "setting": "[1]; single oral dose 25 mg", "value": 3, "unit": "h"}, {"measurement": "half-life", "setting": "[1]; single oral dose 25 mg, read-out: t1/2 (converted)", "value": 3.04, "unit": "h"}, {"measurement": "Tmax", "setting": "[1]; single oral dose 75 mg", "value": 2.92, "unit": "h"}, {"measurement": "half-life", "setting": "[1]; single oral dose 75 mg, read-out: t1/2 (converted)", "value": 4.05, "unit": "h"}, {"measurement": "Tmax", "setting": "[1]; single oral dose 225 mg", "value": 3.17, "unit": "h"}, {"measurement": "half-life", "setting": "[1]; single oral dose 225 mg, read-out: t1/2 (converted)", "value": 4.62, "unit": "h"}, {"measurement": "Tmax", "setting": "[1]; single oral dose 675 mg", "value": 2.67, "unit": "h"}, {"measurement": "half-life", "setting": "[1]; single oral dose 675 mg, read-out: t1/2 (converted)", "value": 4.19, "unit": "h"}, {"measurement": "CL renal", "setting": "[1]; oral, as doses increased from 25 mg to 675 mg, read-out: mean renal clearance", "value": "98.3 to 128", "unit": "mL/min"}, {"measurement": "CL renal", "setting": "[1]; single oral dose 25 mg, read-out: CLR (converted)", "value": 98.3, "unit": "mL/min"}, {"measurement": "CL renal", "setting": "[1]; single oral dose 75 mg, read-out: CLR (converted)", "value": 95.5, "unit": "mL/min"}, {"measurement": "CL renal", "setting": "[1]; single oral dose 225 mg, read-out: CLR (converted)", "value": 126, "unit": "mL/min"}, {"measurement": "CL renal", "setting": "[1]; single oral dose 675 mg, read-out: CLR (converted)", "value": 128, "unit": "mL/min"}, {"measurement": "AUC(0-inf)", "setting": "[1]; single oral dose 25 mg", "value": 1130, "unit": "ng·h/mL"}, {"measurement": "AUC(0-t)", "setting": "[1]; single oral dose 25 mg", "value": 1090, "unit": "ng·h/mL"}, {"measurement": "Cmax", "setting": "[1]; single oral dose 25 mg", "value": 201, "unit": "ng/mL"}, {"measurement": "AUC(0-inf)", "setting": "[1]; single oral dose 75 mg", "value": 4730, "unit": "ng·h/mL"}, {"measurement": "AUC(0-t)", "setting": "[1]; single oral dose 75 mg", "value": 4660, "unit": "ng·h/mL"}, {"measurement": "Cmax", "setting": "[1]; single oral dose 75 mg", "value": 685, "unit": "ng/mL"}, {"measurement": "AUC(0-inf)", "setting": "[1]; single oral dose 225 mg", "value": 11400, "unit": "ng·h/mL"}, {"measurement": "AUC(0-t)", "setting": "[1]; single oral dose 225 mg", "value": 11200, "unit": "ng·h/mL"}, {"measurement": "Cmax", "setting": "[1]; single oral dose 225 mg", "value": 2000, "unit": "ng/mL"}, {"measurement": "AUC(0-inf)", "setting": "[1]; single oral dose 675 mg", "value": 35700, "unit": "ng·h/mL"}, {"measurement": "AUC(0-t)", "setting": "[1]; single oral dose 675 mg", "value": 35300, "unit": "ng·h/mL"}, {"measurement": "Cmax", "setting": "[1]; single oral dose 675 mg", "value": 6490, "unit": "ng/mL"}, {"measurement": "Ae, cumulative percentage of DGJ excreted over the 12-hour postdose period", "setting": "[1]; single oral dose 25 mg", "value": 8.78, "unit": "%"}, {"measurement": "Ae, cumulative percentage of DGJ excreted over the 12-hour postdose period", "setting": "[1]; single oral dose 75 mg", "value": 23.4, "unit": "%"}, {"measurement": "Ae, cumulative percentage of DGJ excreted over the 12-hour postdose period", "setting": "[1]; single oral dose 225 mg", "value": 40.3, "unit": "%"}, {"measurement": "Ae, cumulative percentage of DGJ excreted over the 12-hour postdose period", "setting": "[1]; single oral dose 675 mg", "value": 39.6, "unit": "%"}, {"measurement": "enzyme activity at the lowest dose evaluated", "setting": "α-Gal A [2]; 25 mg b.i.d., Fabry patients", "value": "increased enzyme activity"}, {"measurement": "restoration of α-Gal A activity levels by titration", "setting": "α-Gal A [2]; as measured in white blood cells", "value": "to the normal range"}, {"measurement": "enzyme activity after dose reduction", "setting": "α-Gal A [2]; dose reduced after 6 weeks to 50 mg/day", "value": "remains elevated"}, {"measurement": "patients with an increase in the activity of the enzyme deficient in Fabry disease", "setting": "α-Gal A [2]; first eleven patients treated for at least 12 weeks, white blood cells", "value": "10 of the 11"}, {"measurement": "kidney GL-3 by electron microscopy, one patient", "setting": "GL-3; 12 weeks of treatment, mesangial cells, glomerular endothelium, distal tubules", "value": "observed decrease in GL-3"}, {"measurement": "kidney GL-3 by electron microscopy, second patient", "setting": "GL-3; 24 weeks of treatment, same kidney cell types, not independently conclusive (lower baseline GL-3)", "value": "showed a decrease of GL-3 levels"}, {"measurement": "GL-3 in other kidney cell types including interstitial capillaries", "setting": "GL-3; both patients", "value": "the decreases were not significant"}, {"measurement": "urine and plasma GL-3 levels by liquid chromatography mass spectrometry", "setting": "GL-3; most of 10 patients, baseline and after treatment", "value": "normal or near normal both before and after treatment"}, {"measurement": "skin GL-3 levels by light and electron microscopy", "setting": "GL-3; seven of 10 patients, baseline and after treatment", "value": "normal or near normal both before and after treatment"}, {"measurement": "plasma concentration at which the pharmacological effect (enzyme activity enhancement) is seen", "setting": "α-Gal A [3]", "value": "approximately 0.4 μM"}, {"measurement": "enhancement of mutant enzyme activity", "setting": "[4]", "value": "≥ 45", "unit": "%"}, {"measurement": "enzyme activity in major organs", "setting": "mutant (R301Q) α-Gal A", "value": "substantially elevated"}]}]}
